Test system: cardiomyocytes from human iPS cell lines 409B2
Assay: Experimental Example 4: membrane potential analysis (FluoVolt), beats per minute
Type: cell-based
Details: treated from 25th day, measured on 28th day; n = 3; DMSO control 70.7
Experimental: For analysis of electrophysiological function of cardiomyocytes, humans iPS cell lines 409B2 (prepared from episomal vector (pCXLE-hOCT3/4-shp53-F, pCXLE-hSK, pCXLE-hUL) using HDF1388 purchased from Cell Applications, Inc (reference literature; Okita et al., Nat Methods. 8(5):409-12. (2011))) were used.
The maintenance culture of the above-mentioned iPS cell lines was carried out by a conventional method (Takahashi K, et al. Cell. 131: 861-72, 2007 and Nakagawa M, et al. Nat Biotechnol. 26: 101-6, 2008).
For differentiation induction into cardiomyocytes, the iPS cell lines were treated with CTK solution (ReproCELL) for 2 minutes, the solution was removed, and then the iPS cell lines were treated with Accumax (Innovative Cell Technologies) for 5 minutes, and the cells were dissociated into the single cell by pipetting. The cells were collected by centrifugation (1,000 rpm, 5 min), and seeded on low attachment 96 well dish (Corning) by 5000 cells/70 μL/well, and cultured in a medium prepared by adding 1% L-glutamine, transferrin 150 μg/mL, ascorbic acid 50 μg/mL (Sigma), monothioglycerol 4×10^−4 M, 10 μM Rock inhibitor (Y-27632), 2 ng/mL BMP4 (R&D) and 0.5% Matrigel (Growth Factor Reduced) to StemPro-34 SFM (ThermoFisher) at 37° C., under 5% oxygen condition to form embryoid bodies (0 day). […]

O=C1c2ccc(N3CCOCC3)cc2CN1c1ccc2[nH]c(-c3ccc(Br)cc3)nc2c1 [Example 8, 2-(2-(4-bromophenyl)-1H-benzimidazol-5-yl)-5-(morpholin-4-yl)isoindolin-1-one]
beats (mean): 32.0 beats per minute

— patent US11401264B2, “Heterocyclic compound” (Orizuru Therapeutics, Inc., priority 2018, dated 2022)
